Columns and labels:
[1] = Mucolytic activity in vitro (thromboelastograph, Morandini et al.); parameters: species or system human; conditions: 1 ml of a 10% solution of test compound
Experimental: The tests were carried out in vitro by using the method disclosed by Morandini et al. (Lotta contro 1a tubercolosi 47, n. 4, 1977). A thromboelastograph was used to follow the variations induced by the compounds of general formula (I) and acetylcysteine on the rheological properties of human sputum.

[2] = Acute toxicity (LD50, Weil method), e.p. administration in mouse; conditions: in vivo, ip, Weil method N = 4 K = 4
From the text: LD50 of the compounds of formula (I) assessed with the Weil method ("Tables for convenient calculation of median effective dose (LD50 or ED 50) and instructions in their use", Biometrics, 249-253, 1952), by e.p. administration in mouse is shown in Table 1.

bronchial secretion = test: Expectorant activity (bronchial secretion in anesthetized rabbits, Perry et al.); assay type: in vivo, rabbit; conditions: 20 to 40 mg
Experimental: The tests were carried out on male rabbits, weighing 2-3 Kg, anesthetized with ethyl urethane, by following the method disclosed by Perry et al. (J. Pharm. Exp. Ther. 73, 65, 1941).
Each cannula was connected to a feeding device which delivered a steady flow-rate of pre-heated air (36°-38° C.) at constant humidity (80%). At the lower end of each cannula, a graduated cylinder was fitted, wherein the bronchial secretion was collected. All of the animals breathed spontaneously and consequently they self-regulated the air intake suitable for normal respiration. After an hour following cannula insertion, the animals were administered orally (by stomach tube) the compounds of general formula (I) dissolved in distilled water at doses comprised between 20 and 40 mg. Each dose of drug was administered to 5 animals. The control animals (8) were given water only. The amount of secretion was determined after 1, 2 and 4 hours from administration.

[3] = tested on: cough-inducing irritation; test: Antitussive activity (citric acid aerosol induced cough); assay type: in vivo, guinea pig; conditions: 200 mg/Kg orally, one hour before test; for Number of coughs after treatment: 10 minutes exposure to 10% citric acid aerosol; for % Inhibition of coughs: before vs. after treatment
Experimental: The cough-inducing irritation was studied in guinea pigs by exposing the experimental animals to an environment wherein a 10% citric acid solution was atomized by an aerosol device kept at a steady pressure with compressed air. The experimental animals were placed in a glass-walled chamber which was connected to an electrical recording apparatus suitable for counting coughs.
The period of exposure to the cough-inducing aerosol was 10 minutes. The experimental animals were subjected to a control test seven days before they were orally administered 200 mg/Kg of the compounds.

[4] = 1 hour after oral administration
[5] = 2 hours after oral administration
[6] = 4 hours after oral administration

Structure (SMILES)	Percentage drop ± s.e. of the tracing versus maximum peak (mucolytic activity index) ([1]; dilution 1/30)	Percentage drop ± s.e. of the tracing versus maximum peak (mucolytic activity index) ([1]; dilution 1/60)	LD50 [2]	Percentage variations ± s.e. of bronchial secretion versus basal values (bronchial secretion; [4])	Percentage variations ± s.e. of bronchial secretion versus basal values (bronchial secretion; [5])	Percentage variations ± s.e. of bronchial secretion versus basal values (bronchial secretion; [6])	Number of coughs after treatment [3]	% Inhibition of coughs [3]
CC(=O)N[C@@H](CS)C(=O)O [Acetylcysteine, acetylcysteine, reference compound]	75%	22%	–	–	–	–	–	–
CCCOC(=O)c1ccc(OC(=O)CNC(=O)C(C)SC(=O)c2cccs2)cc1 (centres unmarked) [(1), propyl p-(2-thenoylmercaptopropionylglyciloxy) benzoate]	75%	60%	1580 mg/kg	+0.9 ± 0.05%	+2.1 ± 0.01%	+3.8 ± 0.06%	39 coughs	37%
CCOC(=O)c1ccccc1OC(=O)CNC(=O)C(C)SC(=O)c1cccs1 (centres unmarked) [(4), ethyl o-(2-thenoylmercaptopropionylglyciloxy) benzoate]	82%	60%	2150 mg/kg	+0.8 ± 0.03%	+1.9 ± 0.06%	+3.0 ± 0.04%	30 coughs	52%
COC(=O)c1ccccc1OC(=O)CNC(=O)C(C)SC(=O)c1cccs1 (centres unmarked) [(3), methyl o-(2-thenoylmercaptopropionylglyciloxy) benzoate]	85%	65%	1780 mg/kg	+0.3 ± 0.05%	+0.9 ± 0.05%	+1.4 ± 0.08%	31 coughs	49%
CCCOC(=O)c1ccccc1OC(=O)CNC(=O)C(C)SC(=O)c1cccs1 (centres unmarked) [(5), propyl o-(2-thenoylmercaptopropionylglyciloxy) benzoate]	78%	57%	2080 mg/kg	+0.9 ± 0.06%	+1.7 ± 0.05%	+3.2 ± 0.06%	28 coughs	49%
CCCCOC(=O)c1ccccc1OC(=O)CNC(=O)C(C)SC(=O)c1cccs1 (centres unmarked) [(6), butyl o-(2-thenoylmercaptopropionylglyciloxy) benzoate]	75%	55%	1800 mg/kg	+0.5 ± 0.04%	+1.0 ± 0.06%	+1.9 ± 0.04%	25 coughs	49%
CC(=O)Nc1ccc(OC(=O)CNC(=O)C(C)SC(=O)c2cccs2)cc1 (centres unmarked) [(2), p-(2-thenoylmercaptopropionylglyciloxy) acetamido benzene]	86%	65%	1930 mg/kg	+0.8 ± 0.03%	+1.2 ± 0.04%	+2.5 ± 0.07%	30 coughs	46%

— patent US4472424A, “Esters of 2-thenoylmercaptopropionylglycine with substituted hydroxybenzenes, process for their preparation and pharmaceutical compositions containing same” (Sigma-Tau Industrie Farmaceutiche Riunite S.p.A., priority 1981, dated 1984)
